Laboratory results taken from the Biogen ADME set (Fang et al. 2023).
Values after ≈ are worked out from the molar mass of the structure shown.

Details: for aqueous solubility: pH 6.8

| MDR1-MDCK efflux ratio | intrinsic clearance, human liver microsomes | intrinsic clearance, rat liver microsomes | aqueous solubility | SMILES |
| --- | --- | --- | --- | --- |
| 0.958 | 928 mL/min/kg | 4390 mL/min/kg | 48.2 µg/mL (≈ 127 µM) | Cc1c(Cl)cccc1NC(=O)C(C)N1CCCN(c2nccs2)CC1 (stereo not drawn) |
| 3.33 | ≤ 4.74 mL/min/kg | 47.9 mL/min/kg | 39.8 µg/mL (≈ 151 µM) | CC1(C)CCN(C(=O)NCCOc2cccnc2)C1 |
|  | 8.4 mL/min/kg | 324 mL/min/kg |  | CC(C)(CNc1cnn(CCO)c1)c1ccccc1 |
|  | ≤ 4.74 mL/min/kg | 109 mL/min/kg | 40.1 µg/mL (≈ 157 µM) | Cc1cc(C(=O)NCC2(c3ccccc3)CC2)on1 |
| 80.8 |  |  |  | C[C@H]1CN(Cc2c(Cl)cccc2C(F)(F)F)C[C@@]1(CC(=O)O)C(=O)NC1CCN(CC2=CCCCC2)CC1 |
| 0.442 | 75.3 mL/min/kg | 477 mL/min/kg | 11.8 µg/mL (≈ 43.2 µM) | CN(Cc1cccc(C#N)c1)c1cnc2ccccc2n1 |
| 2.5 | 22.8 mL/min/kg | 474 mL/min/kg | 2.15 µg/mL (≈ 4.48 µM) | O=C(/C=C/c1ccc(Cl)cc1)N1CCC2(CC1)CN(Cc1ccc(Cl)c(Cl)c1)C(=O)O2 |
|  | 67.5 mL/min/kg | 565 mL/min/kg |  | Cn1nccc1C(=O)NCCc1cc2nc(-c3cccs3)ccn2n1 |
| 20.2 | 6.5 mL/min/kg | 32.3 mL/min/kg |  | CN(C)C(=O)c1cncc(N(C)CCN(C)C2CCCC2)n1 |
| 20 | 22.2 mL/min/kg | 721 mL/min/kg |  | O=C(Nc1ccncc1)[C@H]1CCCN(S(=O)(=O)c2ccc(Cl)cc2)C1 |
| 0.989 | 87.5 mL/min/kg | 492 mL/min/kg | 10.3 µg/mL (≈ 29.7 µM) | Cc1ccc(-c2nc(NCc3ccco3)ncc2-c2cc(C)no2)cn1 |
| 1.41 | ≤ 4.74 mL/min/kg | ≤ 10.7 mL/min/kg | 33.3 µg/mL (≈ 132 µM) | CS(=O)(=O)N1CC(c2n[nH]c3ncccc23)C1 |
|  | 6.56 mL/min/kg | 73.1 mL/min/kg |  | CN(C)C(=O)CCNc1ccnc2ccc(Cl)cc12 |
| 3.68 | ≤ 4.74 mL/min/kg | ≤ 10.7 mL/min/kg |  | CCN1CCN(C(=O)CNc2ncnc3onc(C)c23)CC1 |
|  | ≤ 4.74 mL/min/kg | 36.6 mL/min/kg | 41.1 µg/mL (≈ 182 µM) | Nc1ccnn1Cc1ccc(Cl)c(F)c1 |
| 32.8 | 16.2 mL/min/kg | 860 mL/min/kg |  | COCC1(CNS(=O)(=O)c2ccc3[nH]cnc3c2)CCC1 |
| 65.9 | ≤ 4.74 mL/min/kg | 53.4 mL/min/kg |  | Cc1cc(C)c2ccc(C(=O)N3CCN(c4ncc[nH]c4=O)CC3)cc2n1 |
| 12 | 19.6 mL/min/kg | 126 mL/min/kg |  | CN1CCCn2c1cc(OCc1cc(F)c(Oc3ccc(C(F)(F)F)nc3)c(F)c1)nc2=O |
| 0.983 | 134 mL/min/kg | 496 mL/min/kg | 6.85 µg/mL (≈ 16.3 µM) | O=C(CN1CCCC(c2nc3ccccc3o2)C1)Nc1ccc(OC(F)(F)F)cc1 (stereo not drawn) |
|  | ≤ 4.74 mL/min/kg | 93.1 mL/min/kg |  | CCNc1cc2c(nn1)CCN(C(=O)Cn1ccc3ccccc31)C2 |

| MDR1-MDCK efflux ratio | intrinsic clearance, human liver microsomes | intrinsic clearance, rat liver microsomes | aqueous solubility | SMILES |
| --- | --- | --- | --- | --- |
|  | ≤ 4.74 mL/min/kg | ≤ 10.7 mL/min/kg |  | N#CCCn1ncnc1-c1cccc(C#N)c1 |
| 0.625 | 26.3 mL/min/kg | 1660 mL/min/kg | 54.1 µg/mL (≈ 157 µM) | CN(Cc1c(F)cccc1Cl)C(=O)c1ccc(-n2ccnc2)nc1 |
| 0.388 |  |  | 0.14 µg/mL (≈ 0.415 µM) | Cc1nc(Nc2ccc(F)cc2)nc2c1ncn2-c1ccc(F)cc1 |
| 0.305 |  |  | 0.12 µg/mL (≈ 0.37 µM) | Fc1ccc(Nc2nc(N3CCCCC3)c3nccnc3n2)cc1 |
|  |  |  | 0.36 µg/mL (≈ 1.07 µM) | O=C(Cc1csc(-c2ccc(F)c(F)c2)n1)NCC(F)(F)F |
| 0.712 | 50.2 mL/min/kg | 397 mL/min/kg | 40.5 µg/mL (≈ 124 µM) | CCN(CC#N)C(=O)c1nn(-c2ccc(F)cc2)c2c1CCCC2 |
| 4.82 | 781 mL/min/kg | 1970 mL/min/kg | 87.5 µg/mL (≈ 216 µM) | O=C(NCc1ccc(F)cc1)C1(Cc2ccc(-c3cccnc3)cc2)CCOCC1 |
| 0.85 | 6.42 mL/min/kg | 214 mL/min/kg |  | CC1CCC(O)(CSc2nncn2C(C)C)CC1 (stereo not drawn) |
| 0.592 | 89.6 mL/min/kg | 1150 mL/min/kg | 25.5 µg/mL (≈ 75.8 µM) | COc1ccc(-c2noc([C@@H]3CCCN3Cc3ccccc3)n2)cn1 |
| 1.51 | 2190 mL/min/kg | 4020 mL/min/kg | 46.9 µg/mL (≈ 119 µM) | COc1ccccc1CNC(=O)C(C)N1CCCN(c2ccccc2C#N)CC1 (stereo not drawn) |
| 0.494 | 41.6 mL/min/kg | 167 mL/min/kg | 1.1 µg/mL (≈ 3.66 µM) | CC(C)(C)NC(=O)c1cnc(-c2ccc(Cl)s2)s1 |
| 1.26 | 272 mL/min/kg | 503 mL/min/kg | 2.28 µg/mL (≈ 5.38 µM) | COC(=O)CC1=NN(c2ccc(OC)cc2)C(=O)/C1=C(/C)NCc1ccc(OC)cc1 |
| 78.1 | ≤ 4.74 mL/min/kg | 634 mL/min/kg | 52.3 µg/mL (≈ 148 µM) | O=C(Cn1c(=O)c2cccn2c2ccccc21)NCCCN1CCCC1 |
| 14.8 | 15.7 mL/min/kg | 31.2 mL/min/kg | 36.4 µg/mL (≈ 98.5 µM) | CS(=O)(=O)c1ccc(-c2cnc(NCc3ccco3)n3cnnc23)cc1 |
| 0.825 | ≤ 4.74 mL/min/kg | 196 mL/min/kg |  | CC1(C)[C@H]2CC=C(CN3CCC4(CCC(=O)N4)CC3)[C@@H]1C2 |
| 34.6 | 10.1 mL/min/kg | 129 mL/min/kg | 28.9 µg/mL (≈ 97.3 µM) | Cc1ccc(-n2c(S)nnc2-c2ccc(O)cc2)c(C)c1 |
| 0.503 | 92.6 mL/min/kg | 177 mL/min/kg | 41.2 µg/mL (≈ 177 µM) | Cc1cc(C)nc(NC(=O)N(C)C2CCC2)c1 |
| 13 | 839 mL/min/kg | 2400 mL/min/kg |  | Cn1c(=O)c(C(=O)CSc2nc3ccccc3n2C)c(N)n(Cc2ccccc2)c1=O |
| 12.2 | ≤ 4.74 mL/min/kg | 26.7 mL/min/kg | 47.6 µg/mL (≈ 176 µM) | O=C(NCCc1cn2c(n1)CCCC2)c1ccccn1 |
| 106 | 5.41 mL/min/kg | 88.5 mL/min/kg |  | [2H]c1nc(C)nc([2H])c1-c1cc(NC[C@@H](C)c2cccc3c(C(=O)NC)ccnc23)ncn1 |

| SMILES | MDR1-MDCK efflux ratio | intrinsic clearance, human liver microsomes | intrinsic clearance, rat liver microsomes | aqueous solubility |
| --- | --- | --- | --- | --- |
| c1ccc2[nH]c(C3CCNCC3)nc2c1 |  |  |  | 56.3 µg/mL (≈ 280 µM) |
| Cn1nc(C2CCNCC2)c2cccnc21 | 6.86 | ≤ 4.74 mL/min/kg | 36.3 mL/min/kg | 53.4 µg/mL (≈ 247 µM) |
